Tests used:
hMAO-A = target: T1, hMAO-A (Homo sapiens, UniProt P21397); assay: hMAO-A inhibition, Amplex Red fluorometric assay with kynuramine substrate; format: biochemical; conditions: for IC50 / IC50 hMAO-A: recombinant hMAO-A, kynuramine 50 µM, mean ± SD of triplicate, max tested 100 µM; for fold difference of hMAO-A inhibition, (R)-enantiomer versus (S)-enantiomer: (R)- compared with (S)-enantiomer of the same compound
T1 construct: purchased Sigma-Aldrich; host or cells: insect cells (microsomes)
T1 sequence (P21397 1-527): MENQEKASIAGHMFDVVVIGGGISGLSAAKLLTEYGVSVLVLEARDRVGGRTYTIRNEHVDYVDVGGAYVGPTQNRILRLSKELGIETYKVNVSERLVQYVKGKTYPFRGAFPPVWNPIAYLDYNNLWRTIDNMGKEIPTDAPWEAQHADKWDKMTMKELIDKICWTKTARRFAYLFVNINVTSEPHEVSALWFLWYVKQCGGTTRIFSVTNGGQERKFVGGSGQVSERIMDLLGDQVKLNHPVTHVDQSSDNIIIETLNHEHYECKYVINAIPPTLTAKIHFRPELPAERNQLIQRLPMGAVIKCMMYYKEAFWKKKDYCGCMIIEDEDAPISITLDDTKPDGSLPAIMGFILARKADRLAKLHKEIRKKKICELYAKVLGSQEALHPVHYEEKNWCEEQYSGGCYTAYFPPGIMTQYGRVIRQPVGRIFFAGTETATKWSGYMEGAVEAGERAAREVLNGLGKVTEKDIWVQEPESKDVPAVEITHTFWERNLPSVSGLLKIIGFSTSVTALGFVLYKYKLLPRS
Procedure: (§1) The synthesized compounds P1–P18 were evaluated as hMAO inhibitors using the recombinant hMAOs as enzyme sources and kynuramine as substrate. A fluorometric method based on the Amplex® Red reagent (λex = 560 nm; λem = 590 nm) was used to measure hMAO activity. In this horseradish peroxidase-linked assay, Amplex® Red reacts with hydrogen peroxide that is produced by the MAO catalytic cycle to yield a fluorescent product, resorufin [28]. By thus recording the MAO-catalyzed formation of hydrogen peroxide in the presence of different concentrations of a test inhibitor, sigmoidal plots of enzyme activity versus the logarithm of inhibitor concentration were constructed from which IC50 values were estimated (GraphPad Prism 5). All IC50 values were measured in triplicate and are expressed as the mean ± standard deviation (SD). The inhibitory activities of compounds P1–P18 are summarized in Table 1 along with selectivity index (SI) values which are the ratio of IC50(hMAO-A)/IC50(hMAO-B). SI < 1 indicates selectivity for MAO-A, whereas SI > 1 indicates selectivity for the MAO-B isoform.
(§2) Microsomes from insect cells expressing recombinant hMAO-A or hMAO-B (5 mg protein/mL) served as enzyme sources, and were pre-aliquoted and stored at −70 °C. All enzymatic reactions were carried out to a final volume of 200 µL in black 96-well microtiter plates (Corning). Potassium phosphate buffer (100 mM, pH 7.4, made isotonic with KCl) served as reaction solvent. The reactions contained kynuramine (50 µM), various concentrations of the test inhibitor (0.003–100 μM), horseradish peroxidase (1 unit/mL) and Amplex® Red (200 µM). Stock solutions of the test inhibitors were prepared in DMSO and added to the reactions to yield a final concentration of 4% (v/v) DMSO. The reactions were initiated with the addition of hMAO-A (0.0075 mg protein/mL) or hMAO-B (0.015 mg protein/mL), and incubated at 37 °C for 20 min in a convection oven. At endpoint, the reactions were terminated with the addition of 10 μL pargyline (20 mM) and 10 μL (R)-deprenyl (5 mM) for hMAO-A and hMAO-B, respectively. The concentrations of resorufin in the reactions were determined by fluorescence spectrophotometry (λex = 560 nm, λem = 590 nm). Resorufin was quantitated with a linear calibration curve, which was constructed from standard solutions containing hydrogen peroxide (0.05–1.6 µM). Each standard was prepared to a final volume of 200 μL in potassium phosphate buffer and also contained horseradish peroxidase (1 unit/mL), Amplex® Red (200 µM), 4% DMSO as co-solvent, 10 μL pargyline (20 mM) for hMAO-A and 10 μL (R)-deprenyl (5 mM) for hMAO-B. The IC50 values were determined by constructing sigmoidal curves of MAO catalytic activity versus the logarithm of inhibitor concentration. For this purpose, the one site competition model incorporated into the Prism 5 software package (GraphPad, San Diego, CA, USA) was used. All experiments were carried out in triplicate and the IC50 values are expressed as mean ± standard deviation (SD).

hMAO-B = target: T2, hMAO-B (Homo sapiens, UniProt P27338); assay: hMAO-B inhibition, Amplex Red fluorometric assay with kynuramine substrate; format: biochemical; conditions: for SI (selectivity index for the hMAO-B isoform): ratio IC50(hMAO-A)/IC50(hMAO-B), SI > 1 = MAO-B selective; for IC50 / IC50 hMAO-B: recombinant hMAO-B, kynuramine 50 µM, mean ± SD of triplicate, max tested 100 µM
T2 construct: purchased Sigma-Aldrich; host or cells: insect cells (microsomes)
T2 sequence (P27338 1-520): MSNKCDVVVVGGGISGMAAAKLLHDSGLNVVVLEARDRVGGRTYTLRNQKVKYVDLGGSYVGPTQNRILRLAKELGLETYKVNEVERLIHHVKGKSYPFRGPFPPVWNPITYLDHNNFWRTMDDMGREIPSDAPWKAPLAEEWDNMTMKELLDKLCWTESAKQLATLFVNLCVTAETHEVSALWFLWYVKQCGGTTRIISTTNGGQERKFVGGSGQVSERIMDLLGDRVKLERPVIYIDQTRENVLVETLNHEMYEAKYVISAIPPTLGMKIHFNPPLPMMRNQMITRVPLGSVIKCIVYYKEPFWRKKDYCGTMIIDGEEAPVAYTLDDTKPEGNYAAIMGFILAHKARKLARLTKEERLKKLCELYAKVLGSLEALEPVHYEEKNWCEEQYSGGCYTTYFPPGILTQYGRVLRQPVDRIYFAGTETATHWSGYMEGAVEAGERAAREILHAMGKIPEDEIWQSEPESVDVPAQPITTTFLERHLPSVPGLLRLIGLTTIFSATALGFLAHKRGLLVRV
Procedure: as §1, §2

Row | IC50 (hMAO-A) | SI (selectivity index for the hMAO-B isoform) (hMAO-B) | IC50 (hMAO-B) | fold difference of hMAO-A inhibition, (R)-enantiomer versus (S)-enantiomer (hMAO-A) | fold higher hMAO-B inhibitory activity, (R)-enantiomer versus (S)-enantiomer (hMAO-B; (R)- compared with (S)-enantiomer of the same compound) | IC50 hMAO-A (hMAO-A) | melting point | fold higher inhibitory activity for hMAO-A than for hMAO-B (hMAO-A; hMAO-A versus hMAO-B) | IC50 hMAO-B (hMAO-B) | Structure (SMILES)
1 | 50.6 ± 2.67 µM | <0.51 | > 100 µM |  |  |  |  |  |  | COc1ccc(C2=NN(C(N)=S)[C@@H](c3ccccc3)C2)cc1 [(R)-P1]
2 | 33.9 ± 1.29 µM | <0.34 | > 100 µM |  |  |  |  |  |  | CCOc1ccc(C2=NN(C(N)=S)[C@@H](c3ccccc3)C2)cc1 [(R)-P2]
3 | 8 ± 0.83 µM | 2.89 | 2.77 ± 0.39 µM |  |  |  |  |  |  | CCCOc1ccc(C2=NN(C(N)=S)[C@@H](c3ccccc3)C2)cc1 [(R)-P3]
4 | 3.63 ± 0.5 µM | 9.55 | 0.38 ± 0.06 µM | 10 fold |  |  |  |  |  | CCCCOc1ccc(C2=NN(C(N)=S)[C@@H](c3ccccc3)C2)cc1 [(R)-P4]
5 | 3.03 ± 0.6 µM | 6.89 | 0.44 ± 0.028 µM | 18 fold | 6 fold |  |  |  |  | CCCCCOc1ccc(C2=NN(C(N)=S)[C@@H](c3ccccc3)C2)cc1 [(R)-P5]
6 | 46.6 ± 2.62 µM | <0.47 | > 100 µM |  |  |  |  |  |  | COc1ccc(C2=NN(C(N)=S)[C@H](c3ccccc3)C2)cc1 [(S)-P1]
7 | 32.3 ± 4.46 µM | <0.32 | > 100 µM |  |  |  |  |  |  | CCOc1ccc(C2=NN(C(N)=S)[C@H](c3ccccc3)C2)cc1 [(S)-P2]
8 | 9.59 ± 0.83 µM | 0.23 | 42.5 ± 2.61 µM |  |  |  |  |  |  | CCCOc1ccc(C2=NN(C(N)=S)[C@H](c3ccccc3)C2)cc1 [(S)-P3]
9 | 39.2 ± 2.15 µM | 7.78 | 5.03 ± 0.88 µM |  |  |  |  |  |  | CCCCOc1ccc(C2=NN(C(N)=S)[C@H](c3ccccc3)C2)cc1 [(S)-P4]
10 | 55.2 ± 2.72 µM | 19.77 | 2.79 ± 0.87 µM |  |  |  |  |  |  | CCCCCOc1ccc(C2=NN(C(N)=S)[C@H](c3ccccc3)C2)cc1 [(S)-P5]
11 | > 100 µM | >1.85 | 54.1 ± 7.54 µM |  |  | ineffective |  |  |  | CC(C)=CCCC(C)=CCOc1ccc(C2=NN(C(N)=S)C(c3ccccc3)C2)cc1 (stereo not drawn) [Compound P6, 3-(4-((3,7-dimethylocta-2,6-dien-1-yl)oxy)phenyl)-5-phenyl-4,5-dihydro-1H-pyrazole-1-carbothioamide]
12 | 39.3 ± 5.94 µM | 2.72 | 14.5 ± 2.78 µM |  |  |  | 95 to 98 °C |  |  | C=CCOc1ccc(C2=NN(C(C)=O)C(c3ccccc3)C2)cc1 (stereo not drawn) [Compound P7, 1-(3-(4-(allyloxy)phenyl)-5-phenyl-4,5-dihydro-1H-pyrazol-1-yl)ethan-1-one]
13 | > 100 µM | >43.67 | 2.29 ± 0.42 µM |  |  |  |  |  |  | CC(=O)N1N=C(c2ccc(OCC=C(C)C)cc2)CC1c1ccccc1 (stereo not drawn) [Compound P8]
14 | 9.13 ± 0.34 µM | 0.33 | 27.3 ± 0.57 µM |  |  |  | 110 to 112 °C | 3 fold |  | CC(=O)N1N=C(c2ccc(OCC=C(C)C)cc2)CC1c1ccccc1C (stereo not drawn) [Compound P9, 1-(3-(4-((3-methylbut-2-en-1-yl)oxy)phenyl)-5-(o-tolyl)-4,5-dihydro-1H-pyrazol-1-yl)ethan-1-one]
15 | 86.8 ± 14.7 µM | 26.96 | 3.22 ± 0.48 µM |  |  |  | 120 to 122 °C |  |  | CC(=O)N1N=C(c2ccc(OCC=C(C)C)cc2)CC1c1cccc(C)c1 (stereo not drawn) [Compound P10, 1-(3-(4-((3-methylbut-2-en-1-yl)oxy)phenyl)-5-(m-tolyl)-4,5-dihydro-1H-pyrazol-1-yl)ethan-1-one]
16 | > 100 µM | >8.19 | 12.2 ± 0.71 µM |  |  |  |  |  |  | CC(=O)N1N=C(c2ccc(OCC=C(C)C)cc2)CC1c1ccc(C)cc1 (stereo not drawn) [Compound P11, 1-(3-(4-((3-methylbut-2-en-1-yl)oxy)phenyl)-5-(p-tolyl)-4,5-dihydro-1H-pyrazol-1-yl)ethan-1-one]
17 | 80.6 ± 10 µM | <0.81 | > 100 µM |  |  |  | 117 to 119 °C |  |  | CC(=O)N1N=C(c2ccc(OCC=C(C)C)cc2)CC1c1ccc(C)cc1C (stereo not drawn) [Compound P12, 1-(5-(2,4-dimethylphenyl)-3-(4-((3-methylbut-2-en-1-yl)oxy)phenyl)-4,5-dihydro-1H-pyrazol-1-yl)ethan-1-one]
18 | 5.74 ± 1.66 µM | 1.85 | 3.11 ± 0.66 µM |  |  |  | 131 to 134 °C |  |  | CC(=O)N1N=C(c2ccc(OCC=C(C)C)cc2)CC1c1ccccc1Cl (stereo not drawn) [Compound P13, 1-(5-(2-chlorophenyl)-3-(4-((3-methylbut-2-en-1-yl)oxy)phenyl)-4,5-dihydro-1H-pyrazol-1-yl)ethan-1-one]
19 | 4.13 ± 0.26 µM | 3.82 | 1.08 ± 0.05 µM |  |  |  | 85 to 88 °C |  |  | CC(=O)N1N=C(c2ccc(OCC=C(C)C)cc2)CC1c1cccc(Cl)c1 (stereo not drawn) [Compound P14, 1-(5-(3-chlorophenyl)-3-(4-((3-methylbut-2-en-1-yl)oxy)phenyl)-4,5-dihydro-1H-pyrazol-1-yl)ethan-1-one]
20 | 12.1 ± 0.14 µM | 1.11 | 11 ± 3.56 µM |  |  |  |  |  |  | CC(=O)N1N=C(c2ccc(OCC=C(C)C)cc2)CC1c1ccc(Cl)cc1 (stereo not drawn) [Compound P15, 1-(5-(4-chlorophenyl)-3-(4-((3-methylbut-2-en-1-yl)oxy)phenyl)-4,5-dihydro-1H-pyrazol-1-yl)ethan-1-one]
21 | > 100 µM |  | > 100 µM |  |  | did not inhibit | 128 to 130 °C |  | did not inhibit | CC(=O)N1N=C(c2ccc(OCC=C(C)C)cc2)CC1c1ccc(Cl)cc1Cl (stereo not drawn) [Compound P16, 1-(5-(2,4-dichlorophenyl)-3-(4-((3-methylbut-2-en-1-yl)oxy)phenyl)-4,5-dihydro-1H-pyrazol-1-yl)ethan-1-one]
22 | > 100 µM |  | > 100 µM |  |  | devoid of inhibition activity | 132 to 135 °C |  | devoid of inhibition activity | CC(=O)N1N=C(c2ccc(OCC=C(C)C)cc2)CC1c1ccc(-c2ccccc2)cc1 (stereo not drawn) [Compound P17]
